For experiment [1], the system named is ovariectomized (OVX) rat. In words: OVX rat model, bone mineral density by DEXA. In kind it is in vivo. The arrangement: increase in BMD in the femoral shaft compared to vehicle-treated OVX animals: unit not given here. As to conditions: for BMD proximal tibia (18% bone loss in OVX animals): FIG. 6, SEQ ID NO: 19 20-320, SEQ ID NO: 33 5 nmol/kg; for BMD proximal tibia (18% bone loss in OVX animals) / BMD in lumbar vertebrae L1-L2 relative to vehicle-treated OVX and sham animals: s.c. 6 weeks; for BMD in lumbar vertebrae L1-L2 relative to vehicle-treated OVX and sham animals: FIG. 7; for BMD compared to vehicle-treated OVX animals: all doses; for increase in BMD in the femoral shaft compared to vehicle-treated OVX animals / BMD in the femoral shaft: FIG. 9; for BMD in the femoral shaft: site rich in cortical bone. An excerpt: The ovariectomiced(OVX) rat may be used to test the effect of the PTH analogues on osteopenia/osteoporosis in vivo. The OVX rat develop osteopenia due to ovarian hormone deficiency. Osteopenia can be detected as early as 14 days post OVX, increase for the next 100 days and then stabilized (Wronski T J et al., Calcif. Tissue Int., 43(3): 179-183, 1988). The OVX rat model is considered the “golden standard” by both authorities and industry as a model for osteoporosis (Peter C, Rodan G A. Preclinical safety profile of alendronate. Int j Clin Pract Suppl 1999; 101:3-8, and Stewart A F, Cain R L, Burr D B, Jacob D, Turner C H, Hock J M).
(§1) One hundred and seventy-eight female Fisher rats were used for the experiment. Initially the animals were housed in Macrolon type 3 cages (2 rats/cage) under controlled conditions (20° C., 55-85% humidity) following a 12:12-hrs light/dark cycle with light on at 6 am. The animals were fed ad libitum with standard Altromin No. 1324 diet (Chr. Petersen, Ringsted, Denmark). The animals had free access to drinking water (domestic quality tap water added citric acid to pH≈3). At the time of inclusion the animals were 6 months old.
(§2) The week before OVX the animals were stratified according to body weight into two groups that were subjected to either OVX (140 animals) or sham operation (38 animals). Rats were anaesthetized with Hypnorm-Dormicum and the ovariectomy was performed through a midline laparotomy. Sham-operated animals were subjected to midline laparotomy, and the ovaries were exposed but not removed (sham). This group served as an age matched non-osteoporotic control group. A microchip was implanted into each rat during surgery, in order to allow identification of the animals.
(§3) To allow osteopenia to develop before treatment start, animals were housed for 7 weeks (pre-treatment period) without pharmacological treatment. At the end of the pre-treatment period, sham- and OVX-operated rats were stratified according to bodyweight and divided into six groups of 13-20 animals each (Table 7). At this point, one OVX group (N=20) and one sham group (N=20) were sacrificed. These control groups established baseline levels of bone mineral density (BMD). Furthermore, samples were stored for possible later analysis of bone markers, bone strength, histomorphometry and μCT scans.
(§4) For the following 6 weeks one sham group and one OVX group were subjected to vehicle administration (40 mM sodium acetate, 45 mM histidine and 3.9% mannitol, pH 5.5, 300 mOsm/kg). Five OVX groups were treated with increasing doses of the cyclic PTH(1-17) analogue SEQ ID NO: 19. Another OVX group was treated with SEQ ID NO: 33 (Table 7). All drugs were given as s.c. injections. After 6 weeks of treatment the animals were sacrificed. Spine, tibia and femur were collected for analysis of BMD by DEXA-scan and bone samples were stored for later bone strength measurements.
(§5) Lumbar vertebrae (L4-L5-L6-S1), left femur and tibia were collected, cleaned, packed in saline moistened gaze in a tube and stored at −20° C. for later ex vivo bone strength measurements. Right femur and tibia as well as lumbar vertebrae (T13-L1-L2-L3) and caudal vertebrae (S2-S3-C1-C2-C3) were collected, cleaned and stored in 70% ethanol for analysis of bone mineral density (BMD) and possible later histomorphometry and/or μCT scanning.
Ex vivo BMD measurements were performed at the end of the study using a Lunar Piximus II densitometer (GE Healthcare, Chalfont St. Giles, UK) with a precision of 1.5%. Calibration of the instrument was performed with an aluminium/Lucite phantom.
Tibiae, femora and lumbar (L1-L2) and sacral/caudal (S3-C1) spine fragments were placed on the imaging positioning tray and scanned four times. All specimens were placed in a similar orientation for correct comparison. Regions of interest (ROI) were generated on the scans using the Piximus image analysis software provided with the instrument. […]

Experiment [2] has as its system ovariectomized (OVX) rat. Briefly: OVX rat model, bone strength measurements. In kind it is in vivo. Particulars: for bone strength of the femoral head in a compression test: FIG. 10; for bone strength of the femoral head in a compression test / bone strength of the femur in a three-point bending test versus vehicle-treated OVX animals: all doses; for bone strength of the femur, shaft region and femoral head region, versus vehicle-treated OVX-group: FIGS. 10 and 11. As for the experimental part: as §1, §2, §3, §4, §5
Bone strength measurements were performed on a compression device (Lloyd Instruments, Fareham, UK). Bones were positioned with the help of custom-made holders, in order to achieve maximal reproducibility. Maximal force to fracture was determined.
Overall comparison among groups was performed using one-way ANOVA for one-way classified data (BMD). For individual comparisons among groups, post-hoc analysis was performed using Fisher's least significant difference test. Differences were considered significant at the 5% level. All data are presented as mean±SEM.

Setting [3] is: doses greater than 20 nmol/kg/d.

Structures are written as SMILES. Entries after “also recorded” stand apart in the source; their conditions may differ. Bridge positions count the residues as written; N and C are the ends. Square brackets hold non-standard residues; d marks the D form. Peptide text beside a SMILES is read from it. I, II: the chains in the order shown. hArg = N=C(N)NCCCC[C@H](N)C(=O)O; Ac5c = NC1(C(=O)O)CCCC1; Aib = CC(C)(N)C(=O)O

Consider `CC[C@H](C)[C@H](NC(=O)[C@H](CCC(=O)O)NC(=O)C(C)(C)NC(=O)[C@@H](NC(=O)C1(N)CCCC1)C(C)C)C(=O)N[C@@H](CCC(N)=O)C(=O)N[C@@H](CC(C)C)C(=O)N[C@@H](CCSC)C(=O)N[C@@H](Cc1c[nH]cn1)C(=O)N[C@@H](CCC(N)=O)C(=O)N[C@@H](CCCCNC(=N)N)C(=O)N[C@@H](C)C(=O)N[C@H]1CCCCNC(=O)C[C@@H](C(N)=O)NC(=O)[C@H](CC(C)C)NC(=O)[C@H](Cc2c[nH]c3ccccc23)NC(=O)[C@@H](NC(=O)[C@H](C)NC(=O)[C@H](CCCCNC(=N)N)NC(=O)[C@H](CCC(N)=O)NC(=O)[C@H](Cc2c[nH]cn2)NC(=O)[C@H](CCSC)NC(=O)[C@H](CC(C)C)NC(=O)[C@H](CCC(N)=O)NC(=O)[C@@H](NC(=O)[C@H](CCC(=O)O)NC(=O)C(C)(C)NC(=O)[C@@H](NC(=O)C2(N)CCCC2)C(C)C)[C@@H](C)CC)CCCCNC(=O)C[C@@H](C(N)=O)NC(=O)[C@H](CC(C)C)NC(=O)[C@H](Cc2c[nH]c3ccccc23)NC1=O` [SEQ ID NO: 33, (H-Ac5c-Val-Aib-Glu-Ile-Gln-Leu-Met-His-Gln-Har-Ala-Lys( )-Trp-Leu-Asp( )-NH2)2] (I: H-[Ac5c]V[Aib]EIQLMHQ[hArg]AKWLD-NH2 / II: H-[Ac5c]V[Aib]EIQLMHQ[hArg]AKWLD-NH2; amide I:13-II:16, I:16-II:13 (inferred)), for which, in the experiment on ovariectomized (OVX) rat [1] (5 nmol/kg/d s.c., 6 weeks), the “bone mineral density versus vehicle-treated ovariectomized rats, all sites tested” value is “significant increases; also recorded: significantly increased”. In the experiment on ovariectomized (OVX) rat [1] (OVX rats), the “BMD proximal tibia (18% bone loss in OVX animals)” value is “completely reversed”; the “BMD in lumbar vertebrae L1-L2 relative to vehicle-treated OVX and sham animals” value is “improved”. Moreover, the “BMD compared to vehicle-treated OVX animals” value in the experiment on ovariectomized (OVX) rat [1] (FIG. 8) is recorded as “significantly increased”. Besides, in the experiment with ovariectomized (OVX) rat [1], the “increase in BMD in the femoral shaft compared to vehicle-treated OVX animals” value is recorded as “about 81” and the “BMD in the femoral shaft” value is reported as “improved”. Moreover, the “bone strength compared to vehicle-treated OVX-group” value in the experiment on ovariectomized (OVX) rat [2] (5 nmol/kg/d) was “significantly increased”. Moreover, in the experiment with ovariectomized (OVX) rat [2], the “bone strength of the femoral head in a compression test” value is “higher than in vehicle-treated OVX and sham animals at all doses”; the “bone strength of the femur, shaft region and femoral head region, versus vehicle-treated OVX-group” value is on record as “significantly increased”. Further, the “bone strength of the femur in a three-point bending test versus vehicle-treated OVX animals” value in the experiment on ovariectomized (OVX) rat [2] (FIG. 11) is listed as “higher than in vehicle-treated OVX animals at all doses”.

Consider `CC[C@H](C)[C@H](NC(=O)[C@H](CCC(=O)O)NC(=O)C(C)(C)NC(=O)[C@@H](NC(=O)C1(N)CCCC1)C(C)C)C(=O)N[C@@H](CCC(N)=O)C(=O)N[C@@H](CC(C)C)C(=O)N[C@@H](CC(C)C)C(=O)N[C@@H](Cc1c[nH]cn1)C(=O)N[C@@H](CCC(N)=O)C(=O)N[C@@H](CCCCNC(=N)N)C(=O)N[C@@H](C)C(=O)N[C@H]1CCCCNC(=O)C[C@@H](C(N)=O)NC(=O)[C@H](CC(N)=O)NC(=O)[C@H](CC(C)C)NC(=O)[C@H](Cc2c[nH]c3ccccc23)NC1=O` [SEQ ID NO: 19, H-Ac5c-Val-Aib-Glu-Ile-Gln-Leu-Leu-His-Gln-Har-Ala-Lys( )-Trp-Leu-Asn-Asp( )-NH2] (H-[Ac5c]V[Aib]EIQLLHQ[hArg]AKWLND-NH2; lactam 13-17), for which, in the experiment on ovariectomized (OVX) rat [1] (20 nmol/kg/d), the “bone mineral densities at the lowest dose” value is recorded as “at least normalization”. Besides, the “bone mineral density versus vehicle-treated ovariectomized rats, regardless of site” value with ovariectomized (OVX) rat [1] (20 nmol/kg/d to 320 nmol/kg/d s.c., 6 weeks) is “significantly higher bone mineral density”. Besides, in the experiment with ovariectomized (OVX) rat [1] (OVX rats), the “BMD proximal tibia (18% bone loss in OVX animals)” value is “completely reversed”; the “BMD in lumbar vertebrae L1-L2 relative to vehicle-treated OVX and sham animals” value is reported as “improved”; the “bone-anabolic activity in cortical and trabecular bone” value is given as “showed bone-anabolic activity”. The “BMD compared to vehicle-treated OVX animals” value with ovariectomized (OVX) rat [1] (FIG. 8) is on record as “significantly increased”. The “BMD over sham control levels” value with ovariectomized (OVX) rat [1] (FIG. 8, doses higher than 20 nmol/kg/d) is recorded as “significantly increased over sham control levels”. Moreover, in the experiment with ovariectomized (OVX) rat [1], the “increase in BMD in the femoral shaft compared to vehicle-treated OVX animals” value is “about 81” and the “BMD in the femoral shaft” value was “improved”. Besides, the “bone mineral density versus vehicle-treated sham-operated rats” value in the experiment on ovariectomized (OVX) rat [1] (setting [3]) was “bone mineral densities higher than in vehicle-treated sham-operated rats”. Besides, in the experiment with ovariectomized (OVX) rat [2], the “bone strength of the femoral head in a compression test” value was “higher than in vehicle-treated OVX and sham animals at all doses”; the “bone strength of the femur, shaft region and femoral head region, versus vehicle-treated OVX-group” value is “significantly increased”. Besides, the “bone strength of the femur in a three-point bending test versus vehicle-treated OVX animals” value with ovariectomized (OVX) rat [2] (FIG. 11) is listed as “higher than in vehicle-treated OVX animals at all doses”. For the same compound, the “bone strength of the femur in a three-point bending test versus vehicle-treated sham animals” value with ovariectomized (OVX) rat [2] (FIG. 11, doses higher than 20 nmol/kg/d) is recorded as “increased strength compared to vehicle-treated sham animals”. For the same compound, the “bone strength versus vehicle-treated sham-operated group” value in the experiment on ovariectomized (OVX) rat [2] (setting [3]) is reported as “significantly increased”.

(Values after patent publication US20100048462A1, “TRUNCATED PTH PEPTIDES WITH A CYCLIC CONFORMATION” (Zealand Pharma A/S, priority 2006, published 2010).)
